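A five-concentration, 48-hour dose response in 96-well plates underlies each endpoint, interpolated linearly between surrounding concentrations. GI50: concentration for 50% inhibition of growth.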 Active and inactive are the calls of the source. Cut-off read from the data, not from the text of the source: active = GI50 up to about 1.1 µM and inactive = higher.
What was measured:
Assay in all cases: growth of human tumour cells (NCI), 48 h
OVCAR-5 = system: OVCAR-5
SW-620 = system: SW-620
MDA-N = system: MDA-N
SF-295 = system: SF-295
TK-10 = system: TK-10
K562 = system: K562
SK-MEL-5 = system: SK-MEL-5
HOP-62 = system: HOP-62
SNB-75 = system: SNB-75
RPMI-8226 = system: RPMI-8226
MDA-MB-231 = system: MDA-MB-231
A549 = system: A549
SK-MEL-28 = system: SK-MEL-28
MDA-MB-435 = system: MDA-MB-435
HT-29 = system: HT-29
ACHN = system: ACHN
COLO 205 = system: COLO 205
HOP-92 = system: HOP-92
T47D = system: T47D

| SMILES | GI50 (OVCAR-5) | GI50 (SW-620) | GI50 (MDA-N) | GI50 (SF-295) | GI50 (TK-10) | GI50 (K562) | GI50 (SK-MEL-5) | GI50 (HOP-62) | GI50 (SNB-75) | GI50 (RPMI-8226) | GI50 (MDA-MB-231) | GI50 (A549) | GI50 (SK-MEL-28) | GI50 (MDA-MB-435) | GI50 (HT-29) | GI50 (ACHN) | GI50 (COLO 205) | GI50 (HOP-92) | GI50 (T47D) |
| --- | --- | --- | --- | --- | --- | --- | --- | --- | --- | --- | --- | --- | --- | --- | --- | --- | --- | --- | --- |
| O=C(O)CSc1nnc2c3ccccc3c3ccccc3c2n1 | > 100 µM (inactive) | 42.7 µM (inactive) | 73.8 µM (inactive) | 41.8 µM (inactive) | > 100 µM (inactive) | 59.6 µM (inactive) | 45.9 µM (inactive) | 46 µM (inactive) | 36.6 µM (inactive) | 32.4 µM (inactive) | 67.3 µM (inactive) | 49.5 µM (inactive) | > 100 µM (inactive) | 52 µM (inactive) | 68.4 µM (inactive) | 53.6 µM (inactive) | > 100 µM (inactive) | > 100 µM (inactive) |  |
| NS(=O)(=O)c1nnc(NC(=O)CCC(=O)O)s1 | > 100 µM (inactive) | > 100 µM (inactive) | > 100 µM (inactive) | > 100 µM (inactive) | > 100 µM (inactive) | > 100 µM (inactive) | > 100 µM (inactive) | > 100 µM (inactive) |  | > 100 µM (inactive) | > 100 µM (inactive) | > 100 µM (inactive) | > 100 µM (inactive) | > 100 µM (inactive) | > 100 µM (inactive) | > 100 µM (inactive) | > 100 µM (inactive) | > 100 µM (inactive) | > 100 µM (inactive) |
| COc1cc2c(cc1OC)C1=Cc3ccc(OC)c(OC)c3C(C#N)N1CC2 (centres undefined) | > 100 µM (inactive) | 47.6 µM (inactive) | 33.7 µM (inactive) | 37.1 µM (inactive) | > 100 µM (inactive) |  | 17.2 µM (inactive) | 42.4 µM (inactive) | 5.22 µM (inactive) | 20.7 µM (inactive) | 28.8 µM (inactive) | 56.4 µM (inactive) | 32.4 µM (inactive) | 25.9 µM (inactive) | 33.7 µM (inactive) | > 100 µM (inactive) | 18.2 µM (inactive) |  | 9.2 µM (inactive) |
| C[C@@]1(O)C[C@@H](N2C(=O)O[C@@H](c3ccccc3)[C@H]2c2ccccc2)[C@@H]1COCc1ccccc1 | 23.1 µM (inactive) | 26 µM (inactive) | 16.2 µM (inactive) | 16.4 µM (inactive) | 29.2 µM (inactive) | 19.4 µM (inactive) | 13.7 µM (inactive) | 29.2 µM (inactive) |  | 7.74 µM (inactive) | 15.5 µM (inactive) | 22.6 µM (inactive) | 18.2 µM (inactive) | 28.4 µM (inactive) | 17.9 µM (inactive) | 26.2 µM (inactive) | 15 µM (inactive) | 19 µM (inactive) |  |
| OC1(c2cc3ccccc3s2)CCCCC1 | 40.8 µM (inactive) | 50.1 µM (inactive) | 38.4 µM (inactive) | 37.9 µM (inactive) | 64.4 µM (inactive) | 34.4 µM (inactive) | 34.7 µM (inactive) | > 100 µM (inactive) | 35.1 µM (inactive) |  | 30.8 µM (inactive) | 40.8 µM (inactive) | 81.3 µM (inactive) | 46.8 µM (inactive) | 23.7 µM (inactive) | 69 µM (inactive) | 19.9 µM (inactive) | 18 µM (inactive) |  |
| COc1ccc(-c2nc3cc(F)ccc3s2)cc1O | 48.6 µM (inactive) | 87.9 µM (inactive) | 57.3 µM (inactive) | 22.5 µM (inactive) | 16.2 µM (inactive) | 73.1 µM (inactive) | 22.5 µM (inactive) |  |  | 17.6 µM (inactive) | 39.6 µM (inactive) | 34.1 µM (inactive) | 75.7 µM (inactive) | 56.1 µM (inactive) | 26.4 µM (inactive) | 28.7 µM (inactive) | 28.7 µM (inactive) |  | 0.514 µM (active) |
| CC1=NN(c2cccc(Cl)c2)C2(C1=Cc1ccc(N(C)C)cc1)C(Cl)C(=O)N2c1nc2ccccc2s1 (centres undefined) | > 100 µM (inactive) | 19.6 µM (inactive) | 63.7 µM (inactive) | 67.1 µM (inactive) | 76.4 µM (inactive) | 56.9 µM (inactive) | 49.1 µM (inactive) | 17.8 µM (inactive) |  | 41 µM (inactive) | 46.8 µM (inactive) |  | > 100 µM (inactive) | 6.18 µM (inactive) | 25.5 µM (inactive) | 53.2 µM (inactive) |  | 18.6 µM (inactive) | 50.8 µM (inactive) |
| CC1C(c2ccc(F)cc2)c2cc3c(cc2OC1N1CCCC1)OCO3 (centres undefined) | 47.5 µM (inactive) | 47 µM (inactive) | 66.4 µM (inactive) | 27.6 µM (inactive) | 37.2 µM (inactive) | 42 µM (inactive) | 37.7 µM (inactive) | 46.3 µM (inactive) | 22.3 µM (inactive) | > 10 µM (inactive) |  | 34.3 µM (inactive) | 90.4 µM (inactive) | 44.6 µM (inactive) | 47.8 µM (inactive) | 27.7 µM (inactive) | 49.5 µM (inactive) | 15.5 µM (inactive) | 35.7 µM (inactive) |
| Fc1cc(-c2ncc(Cl)cc2Cl)c2cccccc1-2 | > 100 µM (inactive) |  | > 100 µM (inactive) | > 100 µM (inactive) | > 100 µM (inactive) |  | > 100 µM (inactive) | > 100 µM (inactive) | > 100 µM (inactive) |  | > 100 µM (inactive) | > 100 µM (inactive) |  |  | 76.2 µM (inactive) | > 100 µM (inactive) | > 100 µM (inactive) |  |  |
| O=C(Nc1ccccc1F)c1cc2ccc(O)cc2o/c1=N\c1cccc(C(F)(F)F)c1 | 26.5 µM (inactive) | 3.08 µM (inactive) | 3.73 µM (inactive) | 4.99 µM (inactive) |  | 2.85 µM (inactive) | 1.94 µM (inactive) | 7.91 µM (inactive) |  | 2.05 µM (inactive) |  | 3.18 µM (inactive) | 3.82 µM (inactive) | 3.51 µM (inactive) | 32.1 µM (inactive) | 3.57 µM (inactive) | 18.6 µM (inactive) |  | 2.59 µM (inactive) |
| CO/N=C(\C(=O)N(C)n1cnnc1)c1csc(NC(c2ccccc2)(c2ccccc2)c2ccccc2)n1 | > 10 µM (inactive) | > 10 µM (inactive) | > 10 µM (inactive) | > 10 µM (inactive) | > 10 µM (inactive) | > 10 µM (inactive) | > 10 µM (inactive) | > 10 µM (inactive) | > 10 µM (inactive) | > 10 µM (inactive) |  | > 10 µM (inactive) | > 10 µM (inactive) |  | > 10 µM (inactive) | > 10 µM (inactive) | > 10 µM (inactive) | > 10 µM (inactive) | > 10 µM (inactive) |
| CN(C(=O)c1ccncc1)c1ccccc1 | > 100 µM (inactive) | > 100 µM (inactive) |  | > 100 µM (inactive) | > 100 µM (inactive) | > 100 µM (inactive) | > 100 µM (inactive) | > 100 µM (inactive) | > 100 µM (inactive) | > 100 µM (inactive) | > 100 µM (inactive) | > 100 µM (inactive) | > 100 µM (inactive) | > 100 µM (inactive) | > 100 µM (inactive) | > 100 µM (inactive) | > 100 µM (inactive) | > 100 µM (inactive) | > 100 µM (inactive) |
| Oc1cc(-c2cccc(C(F)(F)F)c2)nc2cc3c(cc12)OCO3 | 1.49 µM (inactive) | 2.21 µM (inactive) |  |  | > 50 µM (inactive) | 0.26 µM (active) |  | 1.83 µM (inactive) | 1.06 µM (active) | 1.77 µM (inactive) | 1.87 µM (inactive) | 3.97 µM (inactive) | 2.87 µM (inactive) | 0.935 µM (active) | 13.7 µM (inactive) | 25.7 µM (inactive) | 8.93 µM (inactive) | 2.24 µM (inactive) | > 50 µM (inactive) |
| Nc1nc(CCl)nc(N2CCOCC2)n1 | 19.9 µM (inactive) | 24.4 µM (inactive) |  | 29.8 µM (inactive) | 62.7 µM (inactive) | 23.4 µM (inactive) | 20.1 µM (inactive) | 18.2 µM (inactive) | 33.5 µM (inactive) | 32.4 µM (inactive) | 28.9 µM (inactive) | > 100 µM (inactive) | 20.4 µM (inactive) | 29.2 µM (inactive) | 32.7 µM (inactive) | 16.6 µM (inactive) | 17.9 µM (inactive) | 16.8 µM (inactive) | 55.3 µM (inactive) |
| CCOc1ccc(N2C(=O)NC3(c4ccccc4)N(C)C(=O)N(C)C23c2ccccc2)cc1 (centres undefined) | > 100 µM (inactive) | > 100 µM (inactive) | 62.4 µM (inactive) | 97.3 µM (inactive) |  | 74 µM (inactive) | 68.9 µM (inactive) | > 100 µM (inactive) | 12.4 µM (inactive) | 57.1 µM (inactive) | 83.6 µM (inactive) | 56.8 µM (inactive) | > 100 µM (inactive) | > 100 µM (inactive) | 94.2 µM (inactive) | > 100 µM (inactive) | > 100 µM (inactive) | > 100 µM (inactive) |  |
| COC(=O)[C@H](CCSC)NC(=O)c1ccc(CNC(=O)/C=C/c2cccc(Oc3ccccc3)c2)cc1 | > 100 µM (inactive) | 77.4 µM (inactive) |  | > 78.5 µM (inactive) | > 45.3 µM (inactive) | 20.7 µM (inactive) | 15.6 µM (inactive) | > 100 µM (inactive) | 22.4 µM (inactive) | 45.5 µM (inactive) | 21.3 µM (inactive) | 98.4 µM (inactive) | 17.4 µM (inactive) | 14.3 µM (inactive) | > 100 µM (inactive) | > 74.6 µM (inactive) | 21.9 µM (inactive) | 9.75 µM (inactive) | 0.27 µM (active) |
| Cc1cccc2c1Oc1ncccc1C2NC(=O)CN(C)C (centres undefined) | > 10 µM (inactive) | > 10 µM (inactive) |  | > 10 µM (inactive) | > 10 µM (inactive) | > 10 µM (inactive) |  |  | 7.78 µM (inactive) |  |  | > 10 µM (inactive) |  | > 10 µM (inactive) | > 10 µM (inactive) | > 10 µM (inactive) |  | 3.77 µM (inactive) |  |

Source: ChEMBL document CHEMBL1201862, “PubChem BioAssay data set” (2004)
